# How the values were obtained:
# [1] = biological target: T1, LOXL3 (Homo sapiens, UniProt P58215); assay: Oxidation assay of peptides by LOXL3; format: biochemical; conditions: for oxidation of the peptide by LOXL3: oxidation assay
# T1 sequence (P58215 26-753): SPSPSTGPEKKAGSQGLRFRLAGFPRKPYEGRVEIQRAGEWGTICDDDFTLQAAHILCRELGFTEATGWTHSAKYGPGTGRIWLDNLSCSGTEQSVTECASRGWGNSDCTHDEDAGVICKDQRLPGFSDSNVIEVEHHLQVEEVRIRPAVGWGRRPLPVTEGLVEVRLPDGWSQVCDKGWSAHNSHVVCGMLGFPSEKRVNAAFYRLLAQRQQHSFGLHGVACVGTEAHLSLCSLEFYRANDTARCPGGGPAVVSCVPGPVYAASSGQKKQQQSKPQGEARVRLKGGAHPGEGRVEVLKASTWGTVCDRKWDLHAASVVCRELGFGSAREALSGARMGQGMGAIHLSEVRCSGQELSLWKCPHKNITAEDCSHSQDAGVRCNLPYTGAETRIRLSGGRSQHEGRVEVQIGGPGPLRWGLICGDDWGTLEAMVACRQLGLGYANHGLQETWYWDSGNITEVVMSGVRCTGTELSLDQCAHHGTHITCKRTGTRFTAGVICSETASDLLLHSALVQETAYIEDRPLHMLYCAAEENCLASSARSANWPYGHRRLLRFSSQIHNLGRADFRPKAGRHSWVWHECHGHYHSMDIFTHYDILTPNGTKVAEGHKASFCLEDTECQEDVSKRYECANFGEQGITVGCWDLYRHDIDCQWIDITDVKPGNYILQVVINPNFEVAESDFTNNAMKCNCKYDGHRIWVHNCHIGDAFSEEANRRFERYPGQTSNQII
# [2] = biological target: T1, LOXL3; assay: Spreading and adhesion of Pax-GFP cells on LOXL3-treated FN with or without βAPN; format: cell-based; design: purchased R&D systems 6069-AO
# Protocol: Spreading and soft gel experiments: Ibidi 8-wellplates (Ibidi, 190814/1) were coated with human plasma FN (hFN, Sigma-Aldrich, FC010-10MG, 10 μg/ml) for 1 hour at 37° C. Afterwards, the samples were treated with human recombinant LOXL3 (RhLOXL3, R&D systems, 6069-AO) or LOXL2 (RhLOXL2, R&D systems, 2639-AO) for 5 hours (or sodium borate buffer 50 mM as control), with or without 200 mM βAPN (Sigma, A3134-25G) and then washed. Then, cells were seeded on the FN matrix and fixed at varying time points after spreading, followed by immunostaining. For soft gel experiments, Ibidi 8-well plates were covered with silicone gels (DOWSIL, CY 52-276 A&B), prepared at different rigidities that were previously calibrated and described (42) previous to FN coating. Images were acquired using an LSM800 confocal microscope (Zeiss) with Airyscan function and 20× or 63× objectives. […]
# Nascent adhesion formation, even on very stiff matrices, requires at least four RGD (Arg-Gly-Asp) ligands that are localized within ˜60 nm from each other (35, 36). […] Towards that end, following enzymatic treatment, FN was coated on glass coverslips and Pax-GFP cells were added and shortly after (15 or 30 minutes) fixed and analyzed.
# [3] = test system: lung fibroblasts; assay: Lung fibroblast proliferation (culture confluency) with peptides; format: cell-based; conditions: following 72 hours in culture
# From the text: Note the lack of effect in the first day of culturing (G).
# [4] = test system: HDF cells; assay: HDF cell area after exposure to peptides; format: cell-based, human; conditions: HDF on glass without external FN coating, fixed after 1 week; compared with control peptides or untreated sample
# Protocol: (§1) Adhesion, cell area andfibronectin analysis: All of the adhesion and fibronectin fibrils analyses shown in this paper were performed using the trainable Weka segmentation plugin (41) of ImageJ (NIH) software.
# Representative images (FIGS. 9A-E) of HDF cell contour following exposure to the different peptides (9B—SEQ ID NO: 21, 9C—SEQ ID NO: 22; 9D—SEQ ID NO: 19; 9E—SEQ ID NO: 20), seeded on glass without external FN coating and fixed after 1 week (A-E, scale=100 μm) illustrate that inhibitor peptides reduce cell size.
# [5] = test system: human dermal fibroblast (HDF) cells; assay: Fibronectin fibrillogenesis (FN immunostaining) under HDF cells exposed to peptides; format: cell-based; conditions: HDF on glass without external FN coating, fixed after 1 week; compared with control peptides (FN1-3, FN1-9) or untreated sample
# Protocol: as §1
# Immunofluorescence: Cells were fixed with 4% paraformaldehyde solution (36% stock, Sigma-Aldrich, 50-00-0, diluted with PBS) and permeabilized with 0.1% Triton X-100 in PBS (PBT 0.1%). Primary antibodies were incubated with the fixed cells over night at 4° C. After, secondary antibodies and phalloidin were incubated for 1 hour at room temperature. For dSTORM imaging, a second 10 minutes fixation was performed at the end of the immunostaining protocol.
# Representative images (FIGS. 8A-E) of fibronectin immunostaining (color-coded for intensity) underneath human dermal fibroblast (HDF) cells exposed to the different peptides (8B—SEQ ID NO: 21, 8C—SEQ ID NO: 22; 8D—SEQ ID NO: 19; 8E—SEQ ID NO: 20), seeded on glass without external FN coating and fixed after 1 week (A-E, scale=20 μm) illustrate that inhibitor peptides block fibronectin fibrillogenesis.
Molecule,effect on LOXL3 oxidation of inhibitor peptides ([1]; addition of βAPN to the oxidation assay),"cell spreading on LOXL3-treated FN ([2]; βAPN added following the FN treatment, compared to treated FN without the inhibitor)","increases in adhesion sizes and cell areas on LOXL3-treated FN ([2]; βAPN added to the FN-LOXL3 mix throughout the reaction, glass, 15 minutes)",culture confluency (cell proliferation) [3],oxidation of the peptide by LOXL3 [1],cell area [4],total fibronectin fibrils [5]
"N#CCCN [βAPN, beta-aminopropionitrile]",oxidation is inhibited,no difference was observed in cell spreading,blocked,–,–,–,–
DQCQDSETGTFYQIGDSWEKYVHGVRYQCYCYGRGIGEWHCQPL (FN1-9 (control peptide)),–,–,–,not with the control peptide (FN1-9) inhibit cell proliferation,not the control peptides (FN1-3 and FN1-9) undergo oxidation by LOXL3,–,–
ETCFDKYTGNTYRVGDTYERPKDSMIWDCTCIGAGRGRISCTIA (FN1-2 (Inhibitor peptide) long version of FN1-2),–,–,–,inhibit cell proliferation,undergo oxidation by LOXL3,significant reduction,reduction in fibrils

# Reference: patent US20250188150A1, “PEPTIDES FOR THE TREATMENT OF FIBROSIS” (Technion Research & Development Foundation Limited, priority 2022, published 2025)
